Reference: publication PMC7589200, “Identification of Putative Non-Substrate-Based XT-I Inhibitors by Natural Product Library Screening” (Biomolecules, 2020)
Like-named read-outs stand apart in the source and are kept apart here.

Assays:
[1] = target: T1, recombinant human XT-I (Homo sapiens, UniProt Q86Y38); assay: NP library inhibitor screening, UPLC/ESI-MS/MS XT-I assay; assay type: biochemical; conditions: 50 μM inhibitor, technical duplicates; for XT-I Activity [%]: Table 2, relative to control (DMSO = 100%); for remaining activity at 50 µM: Table S1, relative to negative control containing DMSO
T1 sequence (Q86Y38 252-959 limits assumed): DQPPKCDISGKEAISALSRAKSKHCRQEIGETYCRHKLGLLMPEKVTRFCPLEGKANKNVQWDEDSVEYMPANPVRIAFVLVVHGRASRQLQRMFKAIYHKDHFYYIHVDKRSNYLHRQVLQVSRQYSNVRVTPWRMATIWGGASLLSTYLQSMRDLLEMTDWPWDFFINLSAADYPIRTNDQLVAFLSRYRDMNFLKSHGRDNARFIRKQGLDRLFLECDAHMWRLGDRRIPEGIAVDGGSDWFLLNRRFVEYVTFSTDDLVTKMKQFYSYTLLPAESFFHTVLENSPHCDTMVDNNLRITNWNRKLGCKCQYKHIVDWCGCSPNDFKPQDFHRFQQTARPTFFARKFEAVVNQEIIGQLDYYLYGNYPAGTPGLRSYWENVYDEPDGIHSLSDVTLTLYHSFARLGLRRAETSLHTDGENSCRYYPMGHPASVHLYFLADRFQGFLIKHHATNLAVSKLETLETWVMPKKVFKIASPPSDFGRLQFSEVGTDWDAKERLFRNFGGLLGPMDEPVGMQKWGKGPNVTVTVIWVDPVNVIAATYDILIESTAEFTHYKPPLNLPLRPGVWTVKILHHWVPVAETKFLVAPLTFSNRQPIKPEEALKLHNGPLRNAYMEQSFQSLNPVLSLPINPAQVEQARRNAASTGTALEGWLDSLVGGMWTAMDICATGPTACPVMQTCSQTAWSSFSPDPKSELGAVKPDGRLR

[2] = target: T2, XT-I (Homo sapiens, UniProt Q86Y38); assay: IC50 determination, UPLC/ESI-MS/MS XT-I assay; assay type: biochemical
T2 sequence (Q86Y38 260-959 limits assumed): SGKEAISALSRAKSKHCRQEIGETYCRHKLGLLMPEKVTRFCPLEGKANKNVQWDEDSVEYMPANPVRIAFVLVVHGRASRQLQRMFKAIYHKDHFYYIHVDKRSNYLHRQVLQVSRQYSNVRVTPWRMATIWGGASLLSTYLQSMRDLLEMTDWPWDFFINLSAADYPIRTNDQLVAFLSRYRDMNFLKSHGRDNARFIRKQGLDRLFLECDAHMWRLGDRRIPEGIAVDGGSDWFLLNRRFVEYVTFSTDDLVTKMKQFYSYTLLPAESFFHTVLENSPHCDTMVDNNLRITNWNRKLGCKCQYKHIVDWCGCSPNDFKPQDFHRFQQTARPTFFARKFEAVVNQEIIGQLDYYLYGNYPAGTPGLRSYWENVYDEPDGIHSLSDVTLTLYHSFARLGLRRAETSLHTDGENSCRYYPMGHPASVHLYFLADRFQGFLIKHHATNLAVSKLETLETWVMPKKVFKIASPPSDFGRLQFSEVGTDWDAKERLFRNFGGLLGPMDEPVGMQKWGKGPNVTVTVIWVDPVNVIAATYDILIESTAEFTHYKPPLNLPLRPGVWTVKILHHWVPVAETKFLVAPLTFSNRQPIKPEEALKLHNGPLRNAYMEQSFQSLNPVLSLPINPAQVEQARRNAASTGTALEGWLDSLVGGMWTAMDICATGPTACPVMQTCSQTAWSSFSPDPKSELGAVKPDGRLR
Excerpt: The measurement of relative XT-I activity among different samples is based on the XT-catalyzed incorporation of xylose from UDP-D-xylose on a modified bikunin-derived peptide after a fixed reaction time. The assay was originally developed for the determination of XT activity in human- or cell-culture-derived samples [13] by ultra-performance liquid chromatography/electrospray ionization tandem mass spectrometry (UPLC/ESI-MS/MS). The UPLC/ESI-MS/MS XT assay was recently modified toward a XT-I selective activity determination in human serum and cell culture samples (unpublished data). The relative intensities of the xylosylated peptide species abundance obtained with the respective m/z ratio were directly proportional to the relative XT-I activity of the sample. The XT-I activity determined is expressed in arbitrary units and normalized to the total protein content per 1 mL sample volume in cell culture approaches. A calibrator probe with a fixed amount of recombinant XT-I enzyme was included in every UPLC-MS/MS XT-I assay for assay comparability across multiple runs. […]
Inhibitor candidates from the NP compound library were screened using the UPLC/ESI-MS/MS XT-I assay with recombinant XT-I protein solution from pgsA-6HisXT1-K4 cells. […] The XT-I activity of the protein-inhibitor mixtures were determined by UPLC/ESI-MS/MS as described above. […]

## C[C@@H]1[C@H](O)[C@@H](C)/C=C/C=C/C=C/C=C/C=C/C=C/C=C/[C@H](O[C@@H]2O[C@H](C)[C@@H](O)[C@H](N)[C@@H]2O)C[C@@H]2O[C@](O)(C[C@@H](O)C[C@@H](O)[C@H](O)CC[C@@H](O)C[C@@H](O)CC(=O)O[C@H]1C)C[C@H](O)[C@H]2C(=O)O [Compound 17, Amphotericin B]
[1]
  XT-I Activity [%]: 25%
  remaining activity at 50 µM: 25%
[2]; 15 μM UDP-D-xylose, 10.5 μM acceptor peptide, 1 h preincubation at RT, read-out: IC50
  IC50: 12.2 ± 1 µM

## CC1=C(O)C(=O)C=C2C1=CC=C1[C@@]2(C)CC[C@@]2(C)[C@@H]3C[C@](C)(C(=O)O)CC[C@]3(C)CC[C@]12C [Compound 68, Celastrol]
[1]
  XT-I Activity [%]: 38%
  remaining activity at 50 µM: 38%
[2]
  IC50: 11 ± 1 µM
